Laboratory results taken from patent US20250296959A1, “B7-H3 TARGETING PEPTIDES AND CONSTRUCTS THEREOF” (Mariana Oncology Inc., priority 2024, published 2025).
pKd: −log10 of the molar value. Starred links: 1 amine or outer side, 2 acyl side, 3 side chain; linkers in the order of their positions; H or OH if unused. Positions of bridges follow the written chain, without caps; N, C: chain ends. Non-standard residues stand in square brackets, D forms with d. Residues, ends and D or L forms follow the SMILES beside them. Groups on a side chain read outwards from the residue. *: point of attachment. Ala(1-CH2CO2H-4-piperidyl) = N[C@@H](CC1CCN(CC(=O)O)CC1)C(=O)O; Ala(piperidin-4-yl) = O=C([C@H](CC1CCN([*:3])CC1)N[*:1])[*:2]; DOTA = O=C(O)CN1CCN(CC(=O)O)CCN(CC(=O)*)CCN(CC(=O)O)CC1; X8 = O=C([C@H](C[C@H]1CC[C@@H](O)CC1)N[*:1])[*:2]; Trp(5-F) = N[C@@H](Cc1c[nH]c2ccc(F)cc12)C(=O)O; Phe(3-Cl) = N[C@@H](Cc1cccc(Cl)c1)C(=O)O; C16 diacid = O=C(O)CCCCCCCCCCCCCCC(=O)*; γGlu = O=C(O)[C@H](CCC(=O)[*:2])N[*:1]; Ala(4-THP) = N[C@@H](CC1CCOCC1)C(=O)O; Val(3-OH) = CC(C)(O)[C@H](N)C(=O)O; mTyr = N[C@@H](Cc1cccc(O)c1)C(=O)O; PEG4 = NCCOCCOCCOCCOCCC(=O)O; Tle = CC(C)(C)[C@H](N)C(=O)O; hLeu = CC(C)CC[C@H](N)C(=O)O

What follows are compounds tested against T1, human 4lg B7-H3 (Homo sapiens, UniProt Q5ZPR3) (assay: Affinity determination by surface plasmon resonance (SPR) to 4Ig B7-H3). Settings: SPR KD—37° C., 4Ig B7-H3; 37° C. flow cell temperature.
T1 sequence (Q5ZPR3 29-534): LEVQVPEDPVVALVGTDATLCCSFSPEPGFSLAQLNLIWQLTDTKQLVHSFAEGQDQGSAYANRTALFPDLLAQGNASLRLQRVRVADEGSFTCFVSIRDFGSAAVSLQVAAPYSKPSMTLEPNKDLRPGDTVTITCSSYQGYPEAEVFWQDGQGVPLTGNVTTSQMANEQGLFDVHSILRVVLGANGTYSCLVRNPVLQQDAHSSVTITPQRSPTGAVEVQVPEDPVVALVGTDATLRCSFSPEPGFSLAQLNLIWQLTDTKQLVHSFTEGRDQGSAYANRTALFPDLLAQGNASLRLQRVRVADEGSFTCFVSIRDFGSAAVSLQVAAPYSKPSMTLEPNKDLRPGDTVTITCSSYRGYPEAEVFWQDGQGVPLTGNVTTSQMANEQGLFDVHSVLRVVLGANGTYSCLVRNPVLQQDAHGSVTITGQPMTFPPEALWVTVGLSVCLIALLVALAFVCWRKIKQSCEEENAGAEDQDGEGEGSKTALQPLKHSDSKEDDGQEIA

pKd	SMILES
7.00 to 8.00	CC(=O)N[C@@H](CCC(C)C)C(=O)N[C@@H](Cc1ccc(O)cc1)C(=O)N[C@H]1CSSC[C@@H](C(=O)N[C@@H](Cc2c[nH]c3ccc(F)cc23)C(=O)N[C@@H](Cc2ccccc2)C(=O)N[C@H](C(=O)N[C@H](CCCCNC(=O)CN2CCN(CC(=O)O)CCN(CC(=O)O)CCN(CC(=O)O)CC2)C(=O)O)C(C)(C)O)NC(=O)[C@H](Cc2ccc(O)cc2)NC(=O)[C@H](C(C)C)NC(=O)[C@H](CC(=O)O)NC(=O)[C@H](CC2CCOCC2)NC(=O)[C@H](CCCCNC(=O)CC[C@H](NC(=O)CCCCCCCCCCCCCCC(=O)O)C(=O)O)NC(=O)CNC(=O)[C@H](C(C)(C)C)NC1=O [compound 405, Ac-hLeu-Y-C-Tbg-G-K(yE-C16OH)-ThpA-D-V-Y-C-5FW-F-hydroxyVal-dLys(DOTA)-COOH] (Ac-[hLeu]YC[Tle]GK([γGlu-C16 diacid])[Ala(4-THP)]DVYC[Trp(5-F)]F[Val(3-OH)][dK](DOTA)-OH; disulfide 3-11)
8.00 to 9.00	CC(=O)N[C@@H](CCC(C)C)C(=O)N[C@@H](Cc1ccc(O)cc1)C(=O)N[C@H]1CSSC[C@@H](C(=O)N[C@@H](Cc2c[nH]c3ccc(F)cc23)C(=O)N[C@@H](Cc2ccccc2)C(=O)N[C@H](C(=O)N[C@H](CCC(=O)O)C(N)=O)C(C)(C)O)NC(=O)[C@H](Cc2ccc(O)cc2)NC(=O)[C@H](C(C)C)NC(=O)[C@H](CC(=O)O)NC(=O)[C@H](CC2CCOCC2)NC(=O)[C@H](CC2CCN(C(=O)CCOCCOCCOCCOCCNC(=O)CN3CCN(CC(=O)O)CCN(CC(=O)O)CCN(CC(=O)O)CC3)CC2)NC(=O)CNC(=O)[C@H](C(C)(C)C)NC1=O [compound 409, Ac-hLeu-Y-C-Tbg-G-Pip(PEG4-DOTA)Ala-ThpA-D-V-Y-C-5FW-F-hydroxyVal-dGlu-CONH2] (Ac-[hLeu]YC[Tle]G[Ala(piperidin-4-yl)]([PEG4-DOTA])[Ala(4-THP)]DVYC[Trp(5-F)]F[Val(3-OH)][dE]-NH2; disulfide 3-11)
8.00 to 9.00	CC(=O)N[C@@H](CCC(C)C)C(=O)N[C@@H](Cc1ccc(O)cc1)C(=O)N[C@H]1CSSC[C@@H](C(=O)N[C@@H](Cc2c[nH]c3ccc(F)cc23)C(=O)N[C@@H](Cc2ccccc2)C(=O)N[C@H](C(N)=O)C(C)(C)O)NC(=O)[C@H](Cc2ccc(O)cc2)NC(=O)[C@H](C(C)C)NC(=O)[C@H](CC(=O)O)NC(=O)[C@H](CC2CCN(CC(=O)O)CC2)NC(=O)[C@H](CCCCNC(=O)CN2CCN(CC(=O)O)CCN(CC(=O)O)CCN(CC(=O)O)CC2)NC(=O)CNC(=O)[C@H](C(C)(C)C)NC1=O [compound 419, Ac-hLeu-Y-C-Tbg-G-Lys(DOTA)-Pip(CH2COOH)Ala-D-V-Y-C-5FW-F-hydroxyVal-CONH2] (Ac-[hLeu]YC[Tle]GK(DOTA)[Ala(1-CH2CO2H-4-piperidyl)]DVYC[Trp(5-F)]F[Val(3-OH)]-NH2; disulfide 3-11)
8.00 to 9.00	CC(=O)N[C@@H](CCC(C)C)C(=O)N[C@@H](Cc1ccc(O)cc1)C(=O)N[C@H]1CSSC[C@@H](C(=O)N[C@@H](Cc2c[nH]c3ccc(F)cc23)C(=O)N[C@@H](Cc2ccccc2)C(=O)N[C@H](C(=O)N[C@H](CO)C(N)=O)C(C)(C)O)NC(=O)[C@H](Cc2ccc(O)cc2)NC(=O)[C@H](C(C)C)NC(=O)[C@H](CC(=O)O)NC(=O)[C@H](CC2CCN(CC(=O)O)CC2)NC(=O)[C@H](CCCCNC(=O)CN2CCN(CC(=O)O)CCN(CC(=O)O)CCN(CC(=O)O)CC2)NC(=O)CNC(=O)[C@H](C(C)(C)C)NC1=O [compound 420, Ac-hLeu-Y-C-Tbg-G-Lys(DOTA)-Pip(CH2COOH)Ala-D-V-Y-C-5FW-F-hydroxyVal-dSer-CONH2] (Ac-[hLeu]YC[Tle]GK(DOTA)[Ala(1-CH2CO2H-4-piperidyl)]DVYC[Trp(5-F)]F[Val(3-OH)][dS]-NH2; disulfide 3-11)
8.00 to 9.00	CC(=O)N[C@@H](CCC(C)C)C(=O)N[C@@H](Cc1ccc(O)cc1)C(=O)N[C@H]1CSSC[C@@H](C(=O)N[C@@H](Cc2c[nH]c3ccc(F)cc23)C(=O)N[C@@H](Cc2ccccc2)C(=O)N[C@H](C(=O)N[C@H](CCC(=O)O)C(N)=O)C(C)(C)O)NC(=O)[C@H](Cc2ccc(O)cc2)NC(=O)[C@H](C(C)C)NC(=O)[C@H](CC(=O)O)NC(=O)[C@H](CC2CCN(CC(=O)O)CC2)NC(=O)[C@H](CCCCNC(=O)CN2CCN(CC(=O)O)CCN(CC(=O)O)CCN(CC(=O)O)CC2)NC(=O)CNC(=O)[C@H](C(C)(C)C)NC1=O [compound 421, Ac-hLeu-Y-C-Tbg-G-Lys(DOTA)-Pip(CH2COOH)Ala-D-V-Y-C-5FW-F-hydroxyVal-dGlu-CONH2] (Ac-[hLeu]YC[Tle]GK(DOTA)[Ala(1-CH2CO2H-4-piperidyl)]DVYC[Trp(5-F)]F[Val(3-OH)][dE]-NH2; disulfide 3-11)
8.00 to 9.00	CC(=O)N[C@@H](CCC(C)C)C(=O)N[C@@H](Cc1ccc(O)cc1)C(=O)N[C@H]1CSSC[C@@H](C(=O)N[C@@H](Cc2c[nH]c3ccc(F)cc23)C(=O)N[C@@H](Cc2ccccc2)C(=O)N[C@H](C(=O)N[C@H](CO)C(N)=O)C(C)(C)O)NC(=O)[C@H](Cc2ccc(O)cc2)NC(=O)[C@H](C(C)C)NC(=O)[C@H](CC(=O)O)NC(=O)[C@H](CC2CCOCC2)NC(=O)[C@H](CCCCNC(=O)CN2CCN(CC(=O)O)CCN(CC(=O)O)CCN(CC(=O)O)CC2)NC(=O)CNC(=O)[C@H](C(C)(C)C)NC1=O [compound 422, Ac-hLeu-Y-C-Tbg-G-Lys(DOTA)-ThpA-D-V-Y-C-5FW-F-hydroxyVal-dSer-CONH2] (Ac-[hLeu]YC[Tle]GK(DOTA)[Ala(4-THP)]DVYC[Trp(5-F)]F[Val(3-OH)][dS]-NH2; disulfide 3-11)
8.00 to 9.00	CC(=O)N[C@@H](CCC(C)C)C(=O)N[C@@H](Cc1ccc(O)cc1)C(=O)N[C@H]1CSSC[C@@H](C(=O)N[C@@H](Cc2c[nH]c3ccc(F)cc23)C(=O)N[C@@H](Cc2ccccc2)C(=O)N[C@H](C(=O)N[C@H](CCC(=O)O)C(N)=O)C(C)(C)O)NC(=O)[C@H](Cc2ccc(O)cc2)NC(=O)[C@H](C(C)C)NC(=O)[C@H](CC(=O)O)NC(=O)[C@H](CC2CCOCC2)NC(=O)[C@H](CCCCNC(=O)CN2CCN(CC(=O)O)CCN(CC(=O)O)CCN(CC(=O)O)CC2)NC(=O)CNC(=O)[C@H](C(C)(C)C)NC1=O [compound 423, Ac-hLeu-Y-C-Tbg-G-Lys(DOTA)-ThpA-D-V-Y-C-5FW-F-hydroxyVal-dGlu-CONH2] (Ac-[hLeu]YC[Tle]GK(DOTA)[Ala(4-THP)]DVYC[Trp(5-F)]F[Val(3-OH)][dE]-NH2; disulfide 3-11)
8.00 to 9.00	CC(=O)N[C@@H](CCC(C)C)C(=O)N[C@@H](Cc1ccc(O)cc1)C(=O)N[C@H]1CSSC[C@@H](C(=O)N[C@@H](Cc2c[nH]c3ccc(F)cc23)C(=O)N[C@@H](Cc2ccccc2)C(=O)N[C@H](C(=O)N[C@H](CCC(=O)O)C(N)=O)C(C)(C)O)NC(=O)[C@H](Cc2ccc(O)cc2)NC(=O)[C@H](C(C)C)NC(=O)[C@H](CC(=O)O)NC(=O)[C@H](C[C@H]2CC[C@@H](O)CC2)NC(=O)[C@H](CCCCNC(=O)CN2CCN(CC(=O)O)CCN(CC(=O)O)CCN(CC(=O)O)CC2)NC(=O)CNC(=O)[C@H](C(C)(C)C)NC1=O [compound 424, Ac-hLeu-Y-C-Tbg-G-Lys(DOTA)-4OHCha(pk1)-D-V-Y-C-5FW-F-hydroxyVal-dGlu-CONH2] (Ac-[hLeu]YC[Tle]GK(DOTA)[X8]DVYC[Trp(5-F)]F[Val(3-OH)][dE]-NH2; disulfide 3-11)
8.00 to 9.00	CC(=O)N[C@@H](CCC(C)C)C(=O)N[C@@H](Cc1ccc(O)cc1)C(=O)N[C@H]1CSSC[C@@H](C(=O)N[C@@H](Cc2c[nH]c3ccc(F)cc23)C(=O)N[C@@H](Cc2ccccc2)C(=O)N[C@H](C(=O)N[C@H](CCC(=O)O)C(N)=O)C(C)(C)O)CC(=O)[C@H](Cc2ccc(O)cc2)NC(=O)[C@H](C(C)C)NC(=O)[C@H](CC(=O)O)NC(=O)[C@H](C[C@H]2CC[C@H](O)CC2)NC(=O)[C@H](CCCCNC(=O)CN2CCN(CC(=O)O)CCN(CC(=O)O)CCN(CC(=O)O)CC2)NC(=O)CNC(=O)[C@H](C(C)(C)C)NC1=O [compound 425, Ac-hLeu-Y-C-Tbg-G-Lys(DOTA)-4OHCha(pk2)-D-V-Y-C-5FW-F-hydroxyVal-dGlu-CONH2]
> 9.00	CC(=O)N[C@@H](CCC(C)C)C(=O)N[C@@H](Cc1ccc(O)cc1)C(=O)N[C@H]1CSSC[C@@H](C(=O)N[C@@H](Cc2c[nH]c3ccc(F)cc23)C(=O)N[C@@H](Cc2cccc(Cl)c2)C(=O)N[C@H](C(=O)N[C@H](CCCCNC(=O)CN2CCN(CC(=O)O)CCN(CC(=O)O)CCN(CC(=O)O)CC2)C(=O)O)C(C)(C)O)NC(=O)[C@H](Cc2ccc(O)cc2)NC(=O)[C@H](C(C)C)NC(=O)[C@H](CC(=O)O)NC(=O)[C@H](CC2CCOCC2)NC(=O)[C@H](CC2CCNCC2)NC(=O)CNC(=O)[C@H](C(C)(C)C)NC1=O [compound 430, Ac-hLeu-Y-C-Tbg-G-PipAla-ThpA-D-V-Y-C-5FW-3CIPhe-hydroxyVal-dLys(DOTA)-COOH] (Ac-[hLeu]YC[Tle]G[Ala(piperidin-4-yl)][Ala(4-THP)]DVYC[Trp(5-F)][Phe(3-Cl)][Val(3-OH)][dK](DOTA)-OH; disulfide 3-11)
8.00 to 9.00	CC(=O)N[C@@H](CCC(C)C)C(=O)N[C@@H](Cc1ccc(O)cc1)C(=O)N[C@H]1CSSC[C@@H](C(=O)N[C@@H](Cc2c[nH]c3ccc(F)cc23)C(=O)N[C@@H](Cc2cccc(O)c2)C(=O)N[C@H](C(=O)N[C@H](CCCCNC(=O)CN2CCN(CC(=O)O)CCN(CC(=O)O)CCN(CC(=O)O)CC2)C(=O)O)C(C)(C)O)NC(=O)[C@H](Cc2ccc(O)cc2)NC(=O)[C@H](C(C)C)NC(=O)[C@H](CC(=O)O)NC(=O)[C@H](CC2CCOCC2)NC(=O)[C@H](CC2CCNCC2)NC(=O)CNC(=O)[C@H](C(C)(C)C)NC1=O [compound 431, Ac-hLeu-Y-C-Tbg-G-PipAla-ThpA-D-V-Y-C-5FW-3OHPhe-hydroxyVal-dLys(DOTA)-COOH] (Ac-[hLeu]YC[Tle]G[Ala(piperidin-4-yl)][Ala(4-THP)]DVYC[Trp(5-F)][mTyr][Val(3-OH)][dK](DOTA)-OH; disulfide 3-11)
